# Measured values: ChEMBL document CHEMBL1821675, “The selective P-TEFb inhibitor CAN508 targets angiogenesis” (Eur J Med Chem, 2011)
# How the values were obtained:
# [1] = target: Glycogen synthase kinase-3 beta (Homo sapiens) (UniProt P49841); assay: Inhibition of GSK3b assessed as residual activity at 10 uM by radioactivity assay in presence of 5 uM ATP
# [2] = target: Insulin receptor (Homo sapiens) (UniProt P06213); assay: Inhibition of IR assessed as residual activity at 10 uM by radioactivity assay in presence of 20 uM ATP
# [3] = target: Ribosomal protein S6 kinase beta-1 (Homo sapiens) (UniProt P23443); assay: Inhibition of S6K1 assessed as residual activity at 10 uM by radioactivity assay in presence of 20 uM ATP
# [4] = target: Serine/threonine-protein kinase pim-3 (Homo sapiens) (UniProt Q86V86); assay: Inhibition of PIM3 assessed as residual activity at 10 uM by radioactivity assay in presence of 20 uM ATP
# [5] = test system: SK-MEL-28; assay: Cytotoxicity against human SK-MEL-28 cells; format: functional
# [6] = target: Receptor-interacting serine/threonine-protein kinase 2 (Homo sapiens) (UniProt O43353); assay: Inhibition of RIPK2 assessed as residual activity at 10 uM by radioactivity assay in presence of 20 uM ATP
# [7] = target: Mitogen-activated protein kinase 14 (Homo sapiens) (UniProt Q16539); assay: Inhibition of p38alpha MAPK assessed as residual activity at 10 uM by radioactivity assay in presence of 50 uM ATP
# [8] = target: Serine/threonine-protein kinase MARK2 (Homo sapiens) (UniProt Q7KZI7); assay: Inhibition of MARK2 assessed as residual activity at 10 uM by radioactivity assay in presence of 20 uM ATP
# [9] = test system: ACHN; assay: Cytotoxicity against human ACHN cells; format: functional
# [10] = test system: HMEC-1; assay: Inhibition of RNA synthesis in human HMEC1 cells assessed as decrease in [3H] Uridine incorporation after 2 hrs by scintillation counting; format: functional, cell-based
# [11] = test system: HCT-15; assay: Cytotoxicity against human HCT15 cells; format: functional
# [12] = test system: PC-3; assay: Cytotoxicity against human PC3 cells; format: functional
# [13] = test system: OVCAR-3; assay: Cytotoxicity against human OVCAR3 cells; format: functional
# [14] = test system: NCI-H226; assay: Cytotoxicity against human NCI-H226 cells; format: functional
# [15] = target: Tyrosine-protein kinase Yes (Homo sapiens) (UniProt P07947); assay: Inhibition of YES1 assessed as residual activity at 10 uM by radioactivity assay in presence of 20 uM ATP
# [16] = test system: RPMI-8226; assay: Cytotoxicity against human RPMI8226 cells; format: functional
# [17] = target: Serine/threonine-protein kinase MARK1 (Homo sapiens) (UniProt Q9P0L2); assay: Inhibition of MARK1 assessed as residual activity at 10 uM by radioactivity assay in presence of 20 uM ATP
# [18] = test system: U-251; assay: Cytotoxicity against human U251 cells; format: functional
# [19] = test system: CCRF-CEM; assay: Cytotoxicity against human CCRF-CEM cells; format: functional
# [20] = target: Mitogen-activated protein kinase kinase kinase 11 (Homo sapiens) (UniProt Q16584); assay: Inhibition of MLK3 assessed as residual activity at 10 uM by radioactivity assay in presence of 20 uM ATP
# [21] = target: Mitogen-activated protein kinase 11 (Homo sapiens) (UniProt Q15759); assay: Inhibition of p38beta MAPK assessed as residual activity at 10 uM by radioactivity assay in presence of 20 uM ATP
# [22] = test system: HUVEC; assay: Antiproliferative activity against HUVEC cells assessed as decrease in cell viability at >50 uM within 72 hrs by calcein AM staining-based fluorescence assay; conditions: human
# [23] = target: RAC-alpha serine/threonine-protein kinase (Homo sapiens) (UniProt P31749); assay: Inhibition of PKBalpha assessed as residual activity at 10 uM by radioactivity assay in presence of 5 uM ATP
# [24] = test system: RXF 393; assay: Cytotoxicity against human RXF393 cells; format: functional
# [25] = target: MAP kinase-activated protein kinase 3 (Homo sapiens) (UniProt Q16644); assay: Inhibition of MAPKAP-K3 assessed as residual activity at 10 uM by radioactivity assay in presence of 20 uM ATP
# [26] = target: Tyrosine-protein kinase CSK (Homo sapiens) (UniProt P41240); assay: Inhibition of CSK assessed as residual activity at 10 uM by radioactivity assay in presence of 20 uM ATP
# [27] = target: SRSF protein kinase 1 (Homo sapiens) (UniProt Q96SB4); assay: Inhibition of SRPK1 assessed as residual activity at 10 uM by radioactivity assay in presence of 50 uM ATP
# [28] = test system: SF-539; assay: Cytotoxicity against human SF539 cells; format: functional
# [29] = target: Serine/threonine-protein kinase PAK 4 (Homo sapiens) (UniProt O96013); assay: Inhibition of PAK4 assessed as residual activity at 10 uM by radioactivity assay in presence of 5 uM ATP
# [30] = target: Dual specificity protein kinase TTK (Homo sapiens) (UniProt P33981); assay: Inhibition of TTK assessed as residual activity at 10 uM by radioactivity assay in presence of 20 uM ATP
# [31] = target: Homeodomain-interacting protein kinase 2 (Homo sapiens) (UniProt Q9H2X6); assay: Inhibition of HIPK2 assessed as residual activity at 10 uM by radioactivity assay in presence of 5 uM ATP
# [32] = target: Misshapen-like kinase 1 (Homo sapiens) (UniProt Q8N4C8); assay: Inhibition of MINK1 assessed as residual activity at 10 uM by radioactivity assay in presence of 50 uM ATP
# [33] = Antiangiogenic activity in VEGF-stimulated HMEC1 assessed as reduction in median length of tube at 40 uM after 16 hrs by photographic analysis; format: functional, Homo sapiens, HMEC-1; design: scale not given: the % may be the effect or the level left
# [34] = target: MAP/microtubule affinity-regulating kinase 3 (Homo sapiens) (UniProt P27448); assay: Inhibition of MARK3 assessed as residual activity at 10 uM by radioactivity assay in presence of 5 uM ATP
# [35] = target: Tyrosine-protein kinase Lck (Homo sapiens) (UniProt P06239); assay: Inhibition of Lck assessed as residual activity at 10 uM by radioactivity assay in presence of 50 uM ATP
# [36] = target: Mitogen-activated protein kinase 3 (Homo sapiens) (UniProt P27361); assay: Inhibition of ERK1 assessed as residual activity at 10 uM by radioactivity assay in presence of 5 uM ATP
# [37] = test system: HOP-92; assay: Cytotoxicity against human HOP92 cells; format: functional
# [38] = test system: OVCAR-8; assay: Cytotoxicity against human OVCAR8 cells; format: functional
# [39] = Inhibition of VEGFR assessed as residual activity at 10 uM by radioactivity assay in presence of 20 uM ATP
# [40] = test system: A498; assay: Cytotoxicity against human A498 cells; format: functional
# [41] = target: MAP kinase-activated protein kinase 2 (Homo sapiens) (UniProt P49137); assay: Inhibition of MAPKAP-K2 assessed as residual activity at 10 uM by radioactivity assay in presence of 20 uM ATP
# [42] = test system: SK-MEL-5; assay: Cytotoxicity against human SK-MEL-5 cells; format: functional
# MAP/microtubule affinity-regulating kinase 3 (Homo sapiens), sequence (P27448 whole entry, looked up): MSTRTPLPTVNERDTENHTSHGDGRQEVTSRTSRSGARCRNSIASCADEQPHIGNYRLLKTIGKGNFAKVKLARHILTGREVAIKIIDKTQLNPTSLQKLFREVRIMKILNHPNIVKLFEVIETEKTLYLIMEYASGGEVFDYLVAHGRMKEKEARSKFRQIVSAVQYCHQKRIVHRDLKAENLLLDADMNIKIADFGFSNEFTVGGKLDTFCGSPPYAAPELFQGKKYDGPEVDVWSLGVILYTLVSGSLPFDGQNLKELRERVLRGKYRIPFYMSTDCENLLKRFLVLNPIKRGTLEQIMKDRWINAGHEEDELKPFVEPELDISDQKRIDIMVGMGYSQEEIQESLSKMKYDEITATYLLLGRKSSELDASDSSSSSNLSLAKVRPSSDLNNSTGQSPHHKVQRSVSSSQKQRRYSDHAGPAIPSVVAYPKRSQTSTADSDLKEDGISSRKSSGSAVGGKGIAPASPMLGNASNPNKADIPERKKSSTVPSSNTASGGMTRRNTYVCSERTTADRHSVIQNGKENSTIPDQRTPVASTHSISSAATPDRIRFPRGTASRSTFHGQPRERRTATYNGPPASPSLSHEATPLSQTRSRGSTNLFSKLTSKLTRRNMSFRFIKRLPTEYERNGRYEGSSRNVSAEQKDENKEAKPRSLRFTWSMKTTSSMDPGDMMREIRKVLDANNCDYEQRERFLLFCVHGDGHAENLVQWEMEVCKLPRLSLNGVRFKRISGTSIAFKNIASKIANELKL
# Mitogen-activated protein kinase kinase kinase 11 (Homo sapiens), sequence (Q16584 whole entry, looked up): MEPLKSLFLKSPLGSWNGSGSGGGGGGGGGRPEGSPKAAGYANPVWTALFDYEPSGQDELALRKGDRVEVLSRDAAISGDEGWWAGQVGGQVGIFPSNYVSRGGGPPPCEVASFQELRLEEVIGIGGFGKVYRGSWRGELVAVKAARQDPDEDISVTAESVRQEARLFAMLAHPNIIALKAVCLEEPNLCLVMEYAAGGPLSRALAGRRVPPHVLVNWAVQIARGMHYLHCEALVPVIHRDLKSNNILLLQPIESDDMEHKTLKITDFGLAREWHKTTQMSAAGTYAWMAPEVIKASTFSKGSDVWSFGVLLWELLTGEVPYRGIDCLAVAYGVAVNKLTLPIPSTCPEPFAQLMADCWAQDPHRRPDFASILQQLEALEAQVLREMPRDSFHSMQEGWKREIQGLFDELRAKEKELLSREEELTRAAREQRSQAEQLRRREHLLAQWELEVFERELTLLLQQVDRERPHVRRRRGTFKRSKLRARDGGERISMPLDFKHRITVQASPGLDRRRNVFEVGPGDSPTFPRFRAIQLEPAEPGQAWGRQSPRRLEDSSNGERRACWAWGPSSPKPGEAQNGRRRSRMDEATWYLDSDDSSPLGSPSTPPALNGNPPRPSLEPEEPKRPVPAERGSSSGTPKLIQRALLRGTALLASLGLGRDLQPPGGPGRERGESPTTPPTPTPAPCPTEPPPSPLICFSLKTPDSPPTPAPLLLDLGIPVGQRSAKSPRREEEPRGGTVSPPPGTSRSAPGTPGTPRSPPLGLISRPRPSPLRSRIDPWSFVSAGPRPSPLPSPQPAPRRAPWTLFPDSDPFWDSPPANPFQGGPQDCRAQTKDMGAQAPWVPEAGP
# Glycogen synthase kinase-3 beta (Homo sapiens), sequence (P49841 whole entry, looked up): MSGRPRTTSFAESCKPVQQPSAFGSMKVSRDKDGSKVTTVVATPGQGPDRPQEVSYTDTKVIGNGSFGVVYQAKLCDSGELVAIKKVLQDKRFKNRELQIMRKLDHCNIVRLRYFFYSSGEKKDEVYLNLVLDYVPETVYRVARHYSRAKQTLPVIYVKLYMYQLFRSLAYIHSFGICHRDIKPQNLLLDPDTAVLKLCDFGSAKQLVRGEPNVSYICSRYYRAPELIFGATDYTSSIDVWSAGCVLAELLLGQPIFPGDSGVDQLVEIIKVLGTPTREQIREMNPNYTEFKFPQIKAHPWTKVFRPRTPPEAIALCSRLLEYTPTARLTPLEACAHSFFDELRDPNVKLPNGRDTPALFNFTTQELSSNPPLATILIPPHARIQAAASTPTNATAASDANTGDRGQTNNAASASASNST
# Ribosomal protein S6 kinase beta-1 (Homo sapiens), sequence (P23443 whole entry, looked up): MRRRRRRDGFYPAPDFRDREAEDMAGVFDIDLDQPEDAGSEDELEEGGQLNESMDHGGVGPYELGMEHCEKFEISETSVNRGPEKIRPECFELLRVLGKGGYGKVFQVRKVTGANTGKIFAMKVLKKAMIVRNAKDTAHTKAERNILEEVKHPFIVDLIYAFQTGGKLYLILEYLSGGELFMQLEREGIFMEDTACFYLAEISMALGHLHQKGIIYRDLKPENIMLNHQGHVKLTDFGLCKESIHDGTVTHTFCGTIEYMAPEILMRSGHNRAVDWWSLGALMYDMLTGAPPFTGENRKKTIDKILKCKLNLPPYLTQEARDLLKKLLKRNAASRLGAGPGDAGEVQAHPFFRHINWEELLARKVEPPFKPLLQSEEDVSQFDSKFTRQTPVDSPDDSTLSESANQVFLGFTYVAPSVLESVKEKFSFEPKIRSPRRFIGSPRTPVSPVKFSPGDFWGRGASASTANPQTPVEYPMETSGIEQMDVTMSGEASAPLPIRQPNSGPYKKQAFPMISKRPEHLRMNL
# Serine/threonine-protein kinase MARK2 (Homo sapiens), sequence (Q7KZI7 whole entry): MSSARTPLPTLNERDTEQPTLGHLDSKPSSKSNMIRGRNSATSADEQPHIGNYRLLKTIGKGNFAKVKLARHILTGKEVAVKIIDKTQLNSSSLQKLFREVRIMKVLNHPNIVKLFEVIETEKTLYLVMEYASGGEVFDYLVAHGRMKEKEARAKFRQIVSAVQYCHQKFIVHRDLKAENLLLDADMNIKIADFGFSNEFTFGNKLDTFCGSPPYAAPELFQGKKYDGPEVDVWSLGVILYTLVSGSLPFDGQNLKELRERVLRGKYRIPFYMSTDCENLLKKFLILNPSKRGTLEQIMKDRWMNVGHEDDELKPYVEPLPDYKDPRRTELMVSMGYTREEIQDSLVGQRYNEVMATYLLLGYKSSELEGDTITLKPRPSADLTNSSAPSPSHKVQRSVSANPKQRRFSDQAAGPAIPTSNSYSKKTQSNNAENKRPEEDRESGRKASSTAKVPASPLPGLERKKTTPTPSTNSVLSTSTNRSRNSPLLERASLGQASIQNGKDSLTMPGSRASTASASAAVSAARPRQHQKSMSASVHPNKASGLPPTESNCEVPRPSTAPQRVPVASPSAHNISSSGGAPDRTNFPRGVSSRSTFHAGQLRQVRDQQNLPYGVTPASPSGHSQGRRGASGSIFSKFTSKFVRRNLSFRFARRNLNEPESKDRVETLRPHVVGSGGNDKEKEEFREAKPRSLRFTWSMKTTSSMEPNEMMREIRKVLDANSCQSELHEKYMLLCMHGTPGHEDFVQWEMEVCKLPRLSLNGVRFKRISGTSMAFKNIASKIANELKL
# Receptor-interacting serine/threonine-protein kinase 2 (Homo sapiens), sequence (O43353 whole entry): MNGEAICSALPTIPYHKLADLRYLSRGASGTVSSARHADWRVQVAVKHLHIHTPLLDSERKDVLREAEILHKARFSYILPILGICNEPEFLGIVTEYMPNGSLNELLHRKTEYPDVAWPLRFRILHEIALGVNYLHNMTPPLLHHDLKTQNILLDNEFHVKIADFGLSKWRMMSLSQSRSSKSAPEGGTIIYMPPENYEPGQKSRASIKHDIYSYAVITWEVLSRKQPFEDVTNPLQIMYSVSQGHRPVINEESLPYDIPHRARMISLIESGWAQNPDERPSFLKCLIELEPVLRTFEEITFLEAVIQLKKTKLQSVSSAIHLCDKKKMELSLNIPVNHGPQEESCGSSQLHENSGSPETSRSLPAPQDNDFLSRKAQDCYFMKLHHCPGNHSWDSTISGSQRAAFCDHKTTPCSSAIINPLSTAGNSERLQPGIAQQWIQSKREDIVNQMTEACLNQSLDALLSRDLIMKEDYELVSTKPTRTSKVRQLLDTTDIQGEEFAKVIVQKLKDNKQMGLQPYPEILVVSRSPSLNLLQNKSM
# Mitogen-activated protein kinase 11 (Homo sapiens), sequence (Q15759 whole entry): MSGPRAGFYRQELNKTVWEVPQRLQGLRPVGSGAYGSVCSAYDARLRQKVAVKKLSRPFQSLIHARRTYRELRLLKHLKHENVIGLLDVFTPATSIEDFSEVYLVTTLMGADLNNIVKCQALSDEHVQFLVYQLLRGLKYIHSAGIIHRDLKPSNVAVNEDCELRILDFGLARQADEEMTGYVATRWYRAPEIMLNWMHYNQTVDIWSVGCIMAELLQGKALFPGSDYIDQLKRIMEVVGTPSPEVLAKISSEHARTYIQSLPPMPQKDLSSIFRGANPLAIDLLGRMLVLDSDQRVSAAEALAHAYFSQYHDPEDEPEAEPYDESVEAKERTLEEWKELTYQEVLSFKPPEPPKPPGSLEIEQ
# SRSF protein kinase 1 (Homo sapiens), sequence (Q96SB4 whole entry): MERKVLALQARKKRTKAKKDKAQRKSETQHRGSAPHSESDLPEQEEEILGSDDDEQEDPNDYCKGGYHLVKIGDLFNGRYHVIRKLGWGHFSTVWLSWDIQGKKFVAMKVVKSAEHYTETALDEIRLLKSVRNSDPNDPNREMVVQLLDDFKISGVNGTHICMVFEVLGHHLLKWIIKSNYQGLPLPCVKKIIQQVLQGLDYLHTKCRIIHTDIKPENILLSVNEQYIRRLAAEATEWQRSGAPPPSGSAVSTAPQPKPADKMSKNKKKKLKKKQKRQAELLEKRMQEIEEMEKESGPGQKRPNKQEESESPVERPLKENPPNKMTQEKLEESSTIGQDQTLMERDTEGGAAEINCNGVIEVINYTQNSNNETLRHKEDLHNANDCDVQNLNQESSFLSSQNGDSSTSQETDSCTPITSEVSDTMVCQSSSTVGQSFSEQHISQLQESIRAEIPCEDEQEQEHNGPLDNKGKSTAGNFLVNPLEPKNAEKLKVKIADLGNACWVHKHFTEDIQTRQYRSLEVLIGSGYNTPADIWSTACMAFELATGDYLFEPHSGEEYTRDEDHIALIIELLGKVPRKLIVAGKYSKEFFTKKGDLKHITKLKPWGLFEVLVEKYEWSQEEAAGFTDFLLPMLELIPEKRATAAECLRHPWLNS
smiles,measurement,setting,value
Nc1n[nH]c(N)c1/N=N/c1ccc(O)cc1,Activity,[1],64%
same,Activity,[2],78%
same,Activity,[3],79%
same,Activity,[4],19%
same,GI50,[5],22.1 µM
same,Activity,[6],57%
same,Activity,[7],101%
same,Activity,[8],79%
same,GI50,[9],15.6 µM
same,IC50,[10],20 µM
same,GI50,[11],24.2 µM
same,GI50,[12],20.3 µM
same,GI50,[13],22.8 µM
same,GI50,[14],17.7 µM
same,Activity,[15],79%
same,GI50,[16],14.4 µM
same,Activity,[17],72%
same,GI50,[18],21.2 µM
same,GI50,[19],20 µM
same,Activity,[20],31%
same,Activity,[21],102%
same,Activity,[22],Non-toxic
same,Activity,[23],100%
same,GI50,[24],18.4 µM
same,Activity,[25],89%
same,Activity,[26],105%
same,Activity,[27],85%
same,GI50,[28],13.2 µM
same,Activity,[29],79%
same,Activity,[30],55%
same,Activity,[31],44%
same,Activity,[32],29%
same,Activity,[33],50%
same,Activity,[34],50%
same,Activity,[35],113%
same,Activity,[36],115%
same,GI50,[37],18.2 µM
same,GI50,[38],18 µM
same,Activity,[39],42%
same,GI50,[40],18.2 µM
same,Activity,[41],26%
same,GI50,[42],13.9 µM
